Experimental findings from US20240415819A1, “MACROCYCLIC COMPOUNDS AS PROTEASOME SUBUNIT BETA TYPE-5 INHIBITORS” (Lead Discovery Center GmbH, priority 2021, published 2024) are described below.

Assay [1] has as its system Hs 746T (human gastric carcinoma cell line). The assay is described as follows: 48 hr CTG viability assay, Hs 746T. The format is cell-based. As to conditions: Hs746T, 48 hr CTG, read-out: Hs 746T IC50. Here is the method:
(§1) A viability assay was conducted for 48 hours to evaluate the inhibition of cancer cell growth by proteasome inhibitors. Briefly, the candidate cell line was plated with a 96-well plate following density of cells, respectively. 6×10^3 Cells/well for A2780 (human ovarian cancer cell line) and MDA-MB-468 (breast carcinoma), 8×10^3 Cells/well for Hs746T (human gastric carcinoma cell line), 1.1×10^4 Cells/well for MM1 S and RPMI 8226 (multiple myeloma). After 24 hours, the cells were treated with various concentrations of the compound (ranging from 0.0015 uM to 10 uM). […] After 48 hours of incubation at 37° C., 5% CO2 incubator, cells were analyzed for viability using the CellTiter-Glo Luminescent Cell Viability assay (Promega, Cat #G7570). All viability assays were performed in duplicate and Luminescence was read using an Envision (Perkin Elmer, USA). Data were analyzed using XLfit software. […] (human gastric carcinoma cell line), MM1 S (B lymphoblast cell line), and RPMI 8226 (B lymphocyte cell line, multiple myeloma). Inhibition is indicated as IC50 [nM] (“-”=not measured).

Assay [2] deals with RPMI 8226 (B lymphocyte cell line, multiple myeloma). The assay is described as follows: 48 hr CTG viability assay, RPMI 8226. Type of assay: cell-based. As to conditions: Homo sapiens, RPMI-8226; 48 hr CTG; read-out: RPMI-8226 IC50. The protocol: as §1
In assay [3] the test system is MM1 S (B lymphoblast cell line). The assay is described as follows: 48 hr CTG viability assay, MM1S. The format is cell-based. As to conditions: Homo sapiens, 48 hr CTG, read-out: MM1S IC50. Here is the method:
as §1

Assay [4] addresses T1, β5 subunit of the human constitutive proteasome (CPS) (Homo sapiens, UniProt P28074).
T1 construct: purchased Boston Biochem E-360
The assay is described as follows: β5 inhibition assay, human constitutive proteasome (Suc-LLVY-AMC). The format is biochemical. As to conditions: IC50 class, Suc-LLVY-AMC substrate. The protocol:
The enzymatic activity of the β5 subunit of the human constitutive proteasome (CPS) is analyzed. In another assay, which differs from the assay of the human constitutive proteasome only in using the human immunoproteasome (IPS) the enzymatic activity of the β5 subunit of the human immunoproteasome (IPS) is analyzed. […] Inhibition is indicated as IC50 [nM] (“-”=not measured).

The target of assay [5] is T2, β5 subunit of the human immunoproteasome (IPS) (Homo sapiens, UniProt P28062).
T2 construct: purchased Boston Biochem E-370
The assay is described as follows: β5 inhibition assay, human immunoproteasome (Suc-LLVY-AMC). Type of assay: biochemical. As to conditions: IC50 class, Suc-LLVY-AMC substrate. In outline:
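β5 activity is read as liberated AMC fluorescence (355/460 nm) after 4 h dark reaction at RT with 22.6 μM Suc-LLVY-AMC, stopped by 1 μM bortezomib. Beforehand, 1 nM human IPS and compound sat 10 min at RT in HEPES pH 7.5 buffer containing NaCl, 0.02% SDS and DTT.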

Assay [6] concerns A549 (human lung carcinoma cell line). The assay is described as follows: Glo assay of A549 cells (Table 3; ProteasomeGlo plating scheme). Type of assay: cell-based. As to conditions: Homo sapiens; A549 cells; read-out: PGLo A549. In outline:
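Luminescent read-out of cellular chymotrypsin-like proteasome activity: cells exposed to compound 105 min at 37° C., 5% CO2, then given Suc-LLVY-Glo reagent, shaken 2-5 min and kept dark 10-15 min before reading. Values are IC50 [nM].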

Molecules are shown by their SMILES.

With `Cc1ccc2cc1CNC(=O)[C@H](CCc1ccccc1)NC(=O)[C@@H](NC(=O)CCOC1CC3(C1)CN(C(=O)OC(C)(C)C)C3)CC(=O)N1CCCC(CCO2)C1` (stereo partly drawn) [Compound 577], the IC50 in assay [1], in assay [2] and in assay [3] was less than 100 nM throughout.

In the case of `Cc1ccc2cc1CNC(=O)[C@H](CCc1ccccc1)NC(=O)[C@@H](NC(=O)Cc1ccc(NC(=O)[C@@H](N)CC(=O)O)cc1C)CC(=O)N1CCCC(CCO2)C1` (stereo partly drawn) [Compound 578], the IC50 in assay [1], in assay [2] and in assay [3] was less than 100 nM throughout.

As to `Cc1ccc2cc1CNC(=O)[C@H](CCc1ccccc1)NC(=O)[C@@H](NS(=O)(=O)C1CCCCC1)CC(=O)N1CCCC(CCO2)C1` (stereo partly drawn) [Compound 579], the IC50 in assay [1], in assay [2] and in assay [3] was less than 100 nM in each case.

With `Cc1ccc2cc1CNC(=O)[C@H](CCc1ccccc1)NC(=O)[C@@H](NC(=O)C1CC3(C1)CN(C(=O)OC(C)(C)C)C3)CC(=O)N1CCCC(CCO2)C1` (stereo partly drawn) [Compound 580, tert-butyl 6-(((9S,12S)-5^4-methyl-8,11,14-trioxo-9-phenethyl-4-oxa-7,10-diaza-1(3,1)-piperidina-5(1,3)-benzenacyclotetradecaphane-12-yl)carbamoyl)-2-azaspiro[3.3]heptane-2-carboxylate], the IC50 in assay [1], in assay [2], in assay [4], in assay [5], in assay [6] and in assay [3] was less than 100 nM in each case.

As for `COc1cccc(CCOCCC(=O)N[C@H]2CC(=O)N3CCCC(CCOc4ccc(C)c(c4)CNC(=O)[C@H](CCc4ccccc4)NC2=O)C3)c1` (stereo partly drawn) [Compound 581, 3-(3-methoxyphenethoxy)-N-((9S,12S)-5^4-methyl-8,11,14-trioxo-9-phenethyl-4-oxa-7,10-diaza-1(3,1)-piperidina-5(1,3)-benzenacyclotetradecaphane-12-yl)propanamide], the IC50 in assay [1], in assay [2], in assay [4], in assay [5], in assay [6] and in assay [3] was less than 100 nM in each case.

With `COc1ccccc1CCOCCC(=O)N[C@H]1CC(=O)N2CCCC(CCOc3ccc(C)c(c3)CNC(=O)[C@H](CCc3ccccc3)NC1=O)C2` (stereo partly drawn) [Compound 582, 3-(2-methoxyphenethoxy)-N-((9S,12S)-5^4-methyl-8,11,14-trioxo-9-phenethyl-4-oxa-7,10-diaza-1(3,1)-piperidina-5(1,3)-benzenacyclotetradecaphane-12-yl)propanamide], the IC50 in assay [1], in assay [2], in assay [4], in assay [5], in assay [6] and in assay [3] was less than 100 nM throughout.

In the case of `Cc1ccc2cc1CNC(=O)[C@H](CCC(C)C)NC(=O)[C@@H](NC(=O)Cc1cn3ccsc3n1)CC(=O)N1CCCC(CCO2)C1` (stereo partly drawn) [Compound 583, 2-(imidazo[2,1-b]thiazol-6-yl)-N-((9S,12S)-9-isopentyl-5^4-methyl-8,11,14-trioxo-4-oxa-7,10-diaza-1(3,1)-piperidina-5(1,3)-benzenacyclotetradecaphane-12-yl)acetamide], the IC50 in assay [1], in assay [2], in assay [4], in assay [5], in assay [6] and in assay [3] was less than 100 nM each time.

Regarding `Cc1ccc2cc1CNC(=O)[C@H](CCc1ccccc1)NC(=O)[C@@H](NC(=O)C1CCC3(CCOCC3)CC1)CC(=O)N1CCCC(CCO2)C1` (stereo partly drawn) [Compound 584, N-((9S,12S)-5^4-methyl-8,11,14-trioxo-9-phenethyl-4-oxa-7,10-diaza-1(3,1)-piperidina-5(1,3)-benzenacyclotetradecaphane-12-yl)-3-oxaspiro[5.5]undecane-9-carboxamide], the IC50 in assay [1], in assay [2], in assay [4], in assay [5], in assay [6] and in assay [3] was less than 100 nM throughout.

As for `COc1cccc(COCCC(=O)N[C@H]2CC(=O)N3CCCC(CCOc4ccc(C)c(c4)CNC(=O)[C@H](CCc4ccccc4)NC2=O)C3)c1` (stereo partly drawn) [Compound 585, 3-((3-methoxybenzyl)oxy)-N-((9S,12S)-5^4-methyl-8,11,14-trioxo-9-phenethyl-4-oxa-7,10-diaza-1(3,1)-piperidina-5(1,3)-benzenacyclotetradecaphane-12-yl)propanamide], the IC50 in assay [1], in assay [2], in assay [4], in assay [5], in assay [6] and in assay [3] was less than 100 nM in each case.

Turning to `Cc1ccc2cc1CNC(=O)[C@H](CCc1ccccc1)NC(=O)[C@@H](NC(=O)Cc1ccc3ncccc3c1)CC(=O)N1CCCC(CCO2)C1` (stereo partly drawn) [Compound 586, N-((9S,12S)-5^4-methyl-8,11,14-trioxo-9-phenethyl-4-oxa-7,10-diaza-1(3,1)-piperidina-5(1,3)-benzenacyclotetradecaphane-12-yl)-2-(quinolin-6-yl)acetamide], the IC50 in assay [1], in assay [2], in assay [4], in assay [5], in assay [6] and in assay [3] was less than 100 nM each time.

Take `COc1cccc(OCCC(=O)N[C@H]2CC(=O)N3CCCC(CCOc4ccc(C)c(c4)CNC(=O)[C@H](CCc4ccccc4)NC2=O)C3)c1` (stereo partly drawn) [Compound 587, 3-(3-methoxyphenoxy)-N-((9S,12S)-5^4-methyl-8,11,14-trioxo-9-phenethyl-4-oxa-7,10-diaza-1(3,1)-piperidina-5(1,3)-benzenacyclotetradecaphane-12-yl)propanamid]: the IC50 in assay [1], in assay [2], in assay [4], in assay [5], in assay [6] and in assay [3] was less than 100 nM in each case.

With `Cc1ccc2cc1CNC(=O)[C@H](CCc1ccccc1)NC(=O)[C@@H](NC(=O)C1(CO)CCCC1)CC(=O)N1CCCC(CCO2)C1` (stereo partly drawn) [Compound 689, 1-(hydroxymethyl)-N-((9S,12S)-5^4-methyl-8,11,14-trioxo-9-phenethyl-4-oxa-7,10-diaza-1(3,1)-piperidina-5(1,3)-benzenacyclotetradecaphane-12-yl)cyclopentane-1-carboxamide], the IC50 in assay [2], in assay [4], in assay [5], in assay [6] and in assay [3] was less than 100 nM in each case.

As to `Cc1ccc2cc1CNC(=O)[C@H](CCc1ccccc1)NC(=O)[C@@H](NC(=O)CCOCCCC1CCCC1)CC(=O)N1CCCC(CCO2)C1` (stereo partly drawn) [Compound 692, 3-(3-cyclopentylpropoxy)-N-((9S,12S)-5^4-methyl-8,11,14-trioxo-9-phenethyl-4-oxa-7,10-diaza-1(3,1)-piperidina-5(1,3)-benzenacyclotetradecaphane-12-yl)propanamide], the IC50 in assay [1], in assay [2], in assay [4], in assay [5] and in assay [3] was less than 100 nM throughout.

For `Cc1ccc2cc1CNC(=O)[C@H](CCc1ccccc1)NC(=O)[C@@H](N1CC(C)(C)NC1=O)CC(=O)N1CCCC(CCO2)C1` (stereo partly drawn) [Compound 733, (9S,12S)-12-(4,4-dimethyl-2-oxoimidazolidin-1-yl)-5^4-methyl-9-phenethyl-4-oxa-7,10-diaza-1(3,1)-piperidina-5(1,3)-benzenacyclotetradecaphane-8,11,14-trione], the IC50 in assay [2] lay within 1000 to 5000 nM; in assay [4], 1000 to 5000 nM; in assay [5], 100 to 500 nM; in assay [6] it was 1000 to 5000 nM; in assay [3], 100 to 500 nM.
